Data as given in US10004701B2, “Methods and compositions for treating infection” (UNIVERSITY OF ROCHESTER, priority 2012, dated 2018).
Like-named read-outs stand apart in the source and are kept apart here.

Assays:
Test in all cases: AK assay 384-well format, Prestwick library screening
[1] = test system: P. aeruginosa; type: cell-based, Pseudomonas aeruginosa; conditions: 50 μM final drug concentration; for fold induction at 50 µM: Pseudomonas aeruginosa, 3 h
[2] = test system: S. aureus strain USA300-0114; type: cell-based, Staphylococcus aureus; conditions: 50 μM final drug concentration; for fold induction at 50 µM: Staphylococcus aureus, USA300, 3 h
[3] = test system: A. baumannii strain 98-37-09; type: cell-based, Acinetobacter baumannii; conditions: 50 μM final drug concentration; for fold induction at 50 µM: Acinetobacter baumannii, 983709, 3 h
[4] = test system: E. cloacae; type: cell-based, Enterobacter cloacae; conditions: 50 μM final drug concentration; for fold induction at 50 µM: Enterobacter cloacae, 3 h
[5] = test system: K. pneumoniae; type: cell-based, Klebsiella pneumoniae; conditions: 50 μM final drug concentration; for fold induction at 50 µM: Klebsiella pneumoniae, 3 h
[6] = test system: E. faecium; type: cell-based, Enterococcus faecium; conditions: 50 μM final drug concentration; for fold induction at 50 µM: Enterococcus faecium, 3 h
[7] = test system: E. coli; type: cell-based, Escherichia coli; conditions: 50 μM final drug concentration; for fold induction at 50 µM: Escherichia coli, 3 h
[8] = planktonic, cutoff for positive 3-fold increase, read-out: AK-based Prestwick Library Screening Results, P. aeruginosa (fold increase in extracellular AK activity)
[9] = planktonic, cutoff for positive 3-fold increase, read-out: AK-based Prestwick Library Screening Results, S. aureus (fold increase in extracellular AK activity)
[10] = planktonic, cutoff for positive 3-fold increase, read-out: AK-based Prestwick Library Screening Results, A. baumannii (fold increase in extracellular AK activity)
[11] = planktonic, cutoff for positive 3-fold increase, read-out: AK-based Prestwick Library Screening Results, E. cloacae (fold increase in extracellular AK activity)
[12] = planktonic, cutoff for positive 3-fold increase, read-out: AK-based Prestwick Library Screening Results, K. pneumoniae (fold increase in extracellular AK activity)
[13] = planktonic, cutoff for positive 3-fold increase, read-out: AK-based Prestwick Library Screening Results, E. faecium (fold increase in extracellular AK activity)
[14] = planktonic, cutoff for positive 3-fold increase, read-out: AK-based Prestwick Library Screening Results, E. coli (fold increase in extracellular AK activity)
[15] = planktonic, cutoff for positive-scoring molecules 3-fold increase, read-out: AK-based Prestwick Library Screening Results, P. aeruginosa (fold increase in extracellular AK activity)
[16] = planktonic, cutoff for positive-scoring molecules 3-fold increase, read-out: AK-based Prestwick Library Screening Results, S. aureus (fold increase in extracellular AK activity)
[17] = planktonic, cutoff for positive-scoring molecules 3-fold increase, read-out: AK-based Prestwick Library Screening Results, A. baumannii (fold increase in extracellular AK activity)
[18] = planktonic, cutoff for positive-scoring molecules 3-fold increase, read-out: AK-based Prestwick Library Screening Results, E. cloacae (fold increase in extracellular AK activity)
[19] = planktonic, cutoff for positive-scoring molecules 3-fold increase, read-out: AK-based Prestwick Library Screening Results, K. pneumoniae (fold increase in extracellular AK activity)
[20] = planktonic, cutoff for positive-scoring molecules 3-fold increase, read-out: AK-based Prestwick Library Screening Results, E. faecium (fold increase in extracellular AK activity)
[21] = planktonic, cutoff for positive-scoring molecules 3-fold increase, read-out: AK-based Prestwick Library Screening Results, E. coli (fold increase in extracellular AK activity)

For `CCC1(c2ccc(N)cc2)CCC(=O)NC1=O` (stereo not drawn) [Glutethimide, para-amino], the “AK-based Prestwick Library Screening Results, P. aeruginosa (increase in extracellular AK activity)” value ([1]; 384-well format, […]) was 0.6, the “AK-based Prestwick Library Screening Results, S. aureus (increase in extracellular AK activity)” value ([2]; 384-well format, […]) was 0.5 and the “AK-based Prestwick Library Screening Results, A. baumannii (increase in extracellular AK activity)” value ([3]; 384-well format, […]) was 0.6. The “AK-based Prestwick Library Screening Results, E. cloacae (increase in extracellular AK activity)” value ([4]; 384-well format, […]) was 0.5, the “AK-based Prestwick Library Screening Results, K. pneumoniae (increase in extracellular AK activity)” value ([5]; 384-well format, […]) was 0.6 and the “AK-based Prestwick Library Screening Results, E. faecium (increase in extracellular AK activity)” value ([6]; 384-well format, […]) was 0.9. The “AK-based Prestwick Library Screening Results, E. coli (increase in extracellular AK activity)” value ([7]; 384-well format, […]) was 0.5.
`C[C@H](CCC(=O)NCC(=O)O)[C@H]1CC[C@H]2[C@@H]3[C@H](O)C[C@@H]4C[C@H](O)CC[C@]4(C)[C@H]3C[C@H](O)[C@]12C` [Glycocholic acid] showed a fold induction at 50 µM [1, 8] of 1.1, a fold induction at 50 µM [2, 9] of 1.2 and a fold induction at 50 µM [3, 10] of 1.1. For the same compound, the fold induction at 50 µM [4, 11] was 1.4, the fold induction at 50 µM [5, 12] was 1 and the fold induction at 50 µM [6, 13] was 1.1. For the same compound, the fold induction at 50 µM [7, 14] was 1.1.
`C[N+]1(C)CCC(OC(=O)C(O)(c2ccccc2)C2CCCC2)C1` (stereo not drawn) [Glycopyrrolate] showed a fold induction at 50 µM [1, 15] of 0.9, a fold induction at 50 µM [2, 16] of 0.7 and a fold induction at 50 µM [3, 17] of 0.8. It also gave a fold induction at 50 µM [4, 18] of 1.1, a fold induction at 50 µM [5, 19] of 0.8 and a fold induction at 50 µM [6, 20] of 0.9. The fold induction at 50 µM [7, 21] was 0.9.
Work on `Cc1cc2c(C(C)C)c(O)c(O)c(C=O)c2c(O)c1-c1c(C)cc2c(C(C)C)c(O)c(O)c(C=O)c2c1O` [Gossypol] yielded a fold induction at 50 µM ([1]; planktonic, […], read-out: AK-based Prestwick Library Screening Results, P. aeruginosa (fold increase in extracellular AK activity)) of 0.5, a fold induction at 50 µM ([2]; planktonic, […], read-out: AK-based Prestwick Library Screening Results, S. aureus (fold increase in extracellular AK activity)) of 0.2 and a fold induction at 50 µM ([3]; planktonic, […], read-out: AK-based Prestwick Library Screening Results, A. baumannii (fold increase in extracellular AK activity)) of 0.4. It also gave a fold induction at 50 µM ([4]; planktonic, […], read-out: AK-based Prestwick Library Screening Results, E. cloacae (fold increase in extracellular AK activity)) of 1.5, a fold induction at 50 µM ([5]; planktonic, […], read-out: AK-based Prestwick Library Screening Results, K. pneumoniae (fold increase in extracellular AK activity)) of 0.3 and a fold induction at 50 µM ([6]; planktonic, […], read-out: AK-based Prestwick Library Screening Results, E. faecium (fold increase in extracellular AK activity)) of 1.3. It also gave a fold induction at 50 µM ([7]; planktonic, […], read-out: AK-based Prestwick Library Screening Results, E. coli (fold increase in extracellular AK activity)) of 0.6.
`CN(C)Cc1c[nH]c2ccccc12` [Gramine] gave a fold induction at 50 µM [1, 8] of 1.1, a fold induction at 50 µM [2, 9] of 1.3 and a fold induction at 50 µM [3, 10] of 1.3. For the same compound, the fold induction at 50 µM [4, 11] was 1.5, the fold induction at 50 µM [5, 12] was 1 and the fold induction at 50 µM [6, 13] was 1. For the same compound, the fold induction at 50 µM [7, 14] was 1.2.
`Cn1c(-c2ccc3c(c2)OCO3)cc(=O)c2ccccc21` [Graveoline] showed a fold induction at 50 µM [1, 15] of 0.8, a fold induction at 50 µM [2, 16] of 0.7 and a fold induction at 50 µM [3, 17] of 0.8. For the same compound, the fold induction at 50 µM [4, 18] was 1.2, the fold induction at 50 µM [5, 19] was 0.6 and the fold induction at 50 µM [6, 20] was 0.8. For the same compound, the fold induction at 50 µM [7, 21] was 0.8.
Work on `COC1=CC(=O)C[C@@H](C)[C@]12Oc1c(Cl)c(OC)cc(OC)c1C2=O` [Griseofulvin] yielded a fold induction at 50 µM ([1]; planktonic P. aeruginosa, 384-well, cutoff for positive-scoring molecules 3-fold increase, read-out: AK-based Prestwick Library Screening Results: P. aeruginosa (increase in extracellular AK activity)) of 1.3, a fold induction at 50 µM ([2]; planktonic S. aureus, 384-well, cutoff for positive-scoring molecules 3-fold increase, read-out: AK-based Prestwick Library Screening Results: S. aureus (increase in extracellular AK activity)) of 1.4 and a fold induction at 50 µM ([3]; planktonic A. baumannii, 384-well, cutoff for positive-scoring molecules 3-fold increase, read-out: AK-based Prestwick Library Screening Results: A. baumannii (increase in extracellular AK activity)) of 1.4. The fold induction at 50 µM ([4]; planktonic E. cloacae, 384-well, cutoff for positive-scoring molecules 3-fold increase, read-out: AK-based Prestwick Library Screening Results: E. cloacae (increase in extracellular AK activity)) was 1.3, the fold induction at 50 µM ([5]; planktonic K. pneumoniae, 384-well, cutoff for positive-scoring molecules 3-fold increase, read-out: AK-based Prestwick Library Screening Results: K. pneumoniae (increase in extracellular AK activity)) was 0.9 and the fold induction at 50 µM ([6]; planktonic E. faecium, 384-well, cutoff for positive-scoring molecules 3-fold increase, read-out: AK-based Prestwick Library Screening Results: E. faecium (increase in extracellular AK activity)) was 1.1. The fold induction at 50 µM ([7]; planktonic E. coli, 384-well, cutoff for positive-scoring molecules 3-fold increase, read-out: AK-based Prestwick Library Screening Results: E. coli (increase in extracellular AK activity)) was 1.3.
For `COc1ccccc1OCC(O)CO` (stereo not drawn) [Guaifenesin], the fold induction at 50 µM ([1]; […], read-out: AK-based Prestwick Library Screening Results, P. aeruginosa (fold increase in extracellular AK activity)) was 1.1, the fold induction at 50 µM ([2]; […], read-out: AK-based Prestwick Library Screening Results, S. aureus (fold increase in extracellular AK activity)) was 1.2 and the fold induction at 50 µM ([3]; […], read-out: AK-based Prestwick Library Screening Results, A. baumannii (fold increase in extracellular AK activity)) was 1. The fold induction at 50 µM ([4]; […], read-out: AK-based Prestwick Library Screening Results, E. cloacae (fold increase in extracellular AK activity)) was 1.6, the fold induction at 50 µM ([5]; […], read-out: AK-based Prestwick Library Screening Results, K. pneumoniae (fold increase in extracellular AK activity)) was 0.8 and the fold induction at 50 µM ([6]; […], read-out: AK-based Prestwick Library Screening Results, E. faecium (fold increase in extracellular AK activity)) was 1. It also gave a fold induction at 50 µM ([7]; […], read-out: AK-based Prestwick Library Screening Results, E. coli (fold increase in extracellular AK activity)) of 1.1.
Work on `N=C(N)N/N=C/c1c(Cl)cccc1Cl` [Guanabenz acetate] yielded a fold induction at 50 µM ([1]; 384-well format, cutoff for positive-scoring molecules 3-fold increase, read-out: AK-based Prestwick Library Screening Results, P. aeruginosa (increase in extracellular AK activity)) of 0.6, a fold induction at 50 µM ([2]; 384-well format, cutoff for positive-scoring molecules 3-fold increase, read-out: AK-based Prestwick Library Screening Results, S. aureus (increase in extracellular AK activity)) of 0.5 and a fold induction at 50 µM ([3]; 384-well format, cutoff for positive-scoring molecules 3-fold increase, read-out: AK-based Prestwick Library Screening Results, A. baumannii (increase in extracellular AK activity)) of 0.8. It also gave a fold induction at 50 µM ([4]; 384-well format, cutoff for positive-scoring molecules 3-fold increase, read-out: AK-based Prestwick Library Screening Results, E. cloacae (increase in extracellular AK activity)) of 0.7, a fold induction at 50 µM ([5]; 384-well format, cutoff for positive-scoring molecules 3-fold increase, read-out: AK-based Prestwick Library Screening Results, K. pneumoniae (increase in extracellular AK activity)) of 0.4 and a fold induction at 50 µM ([6]; 384-well format, cutoff for positive-scoring molecules 3-fold increase, read-out: AK-based Prestwick Library Screening Results, E. faecium (increase in extracellular AK activity)) of 1. It also gave a fold induction at 50 µM ([7]; 384-well format, cutoff for positive-scoring molecules 3-fold increase, read-out: AK-based Prestwick Library Screening Results, E. coli (increase in extracellular AK activity)) of 0.7.
